The source of these data is US20250325690A1, “ANTIBODY-DRUG CONJUGATE WITH TWO TYPES OF DRUG-LINKER CONJUGATES ON SINGLE ANTIBODY” (priority 2022, published 2025).

The target of one data set is T1, DDX5 (Homo sapiens, UniProt P17844).
T1 construct: endogenous in cells; host or cells: FaDu and A549 cell lines
The class given is cell-based. The settings on record: FaDu and A549, 0, 10, 100 nM, 24 hours.

Data set [1] relates to survivin, cIAP2, Mcl-1, XIAP. In words: Western blotting of anti-apoptotic protein expression. As to conditions: HCT-8 and FaDu cell lines; FIG. 17. A general note: A western blot detects proteins with antibodies after separation by electrophoresis.
Data set [2] relates to cancer cells. In words: Cytotoxicity in cancer cell lines. As to conditions: 140 cell lines from various cancer types, most cancer cells. The class given is cell-based.
Another data set can be described thus: GLP-toxicity tests. As to conditions: mice and beagle dogs. The class given is in vivo.
Data set [3] deals with cancer cell line xenograft models. The data set is described as follows: Cancer cell line xenograft models, FL118 versus SN-38. As to conditions: same amount as SN-38. The class given is in vivo.
Another data set addresses T2, ABCG2 transporter (Homo sapiens, UniProt Q9UNQ0).
T2 sequence (Q9UNQ0 1-655): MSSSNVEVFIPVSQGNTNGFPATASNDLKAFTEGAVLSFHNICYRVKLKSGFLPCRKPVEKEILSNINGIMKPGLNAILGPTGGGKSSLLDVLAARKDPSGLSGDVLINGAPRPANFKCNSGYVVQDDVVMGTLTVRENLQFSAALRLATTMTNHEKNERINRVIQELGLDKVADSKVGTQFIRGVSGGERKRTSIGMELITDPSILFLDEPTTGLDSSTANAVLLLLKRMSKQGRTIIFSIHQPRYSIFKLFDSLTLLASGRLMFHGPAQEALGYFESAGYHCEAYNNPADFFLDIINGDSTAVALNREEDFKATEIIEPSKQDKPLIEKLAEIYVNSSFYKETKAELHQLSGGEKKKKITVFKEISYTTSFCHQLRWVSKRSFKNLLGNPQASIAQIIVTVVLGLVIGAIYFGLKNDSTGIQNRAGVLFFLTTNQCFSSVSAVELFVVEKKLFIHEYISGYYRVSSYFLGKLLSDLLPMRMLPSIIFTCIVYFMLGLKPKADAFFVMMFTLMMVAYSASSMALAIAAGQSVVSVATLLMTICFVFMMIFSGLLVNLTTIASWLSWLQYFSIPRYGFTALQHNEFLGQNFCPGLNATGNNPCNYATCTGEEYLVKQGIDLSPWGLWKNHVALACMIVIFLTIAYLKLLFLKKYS
The data set is described as follows: Effect of ABCG2 transporter on drug. The class given is cell-based.

In a further data set the target is T3, DNA topoisomerase-1 (Homo sapiens, UniProt P11387).
T3 sequence (P11387 1-765): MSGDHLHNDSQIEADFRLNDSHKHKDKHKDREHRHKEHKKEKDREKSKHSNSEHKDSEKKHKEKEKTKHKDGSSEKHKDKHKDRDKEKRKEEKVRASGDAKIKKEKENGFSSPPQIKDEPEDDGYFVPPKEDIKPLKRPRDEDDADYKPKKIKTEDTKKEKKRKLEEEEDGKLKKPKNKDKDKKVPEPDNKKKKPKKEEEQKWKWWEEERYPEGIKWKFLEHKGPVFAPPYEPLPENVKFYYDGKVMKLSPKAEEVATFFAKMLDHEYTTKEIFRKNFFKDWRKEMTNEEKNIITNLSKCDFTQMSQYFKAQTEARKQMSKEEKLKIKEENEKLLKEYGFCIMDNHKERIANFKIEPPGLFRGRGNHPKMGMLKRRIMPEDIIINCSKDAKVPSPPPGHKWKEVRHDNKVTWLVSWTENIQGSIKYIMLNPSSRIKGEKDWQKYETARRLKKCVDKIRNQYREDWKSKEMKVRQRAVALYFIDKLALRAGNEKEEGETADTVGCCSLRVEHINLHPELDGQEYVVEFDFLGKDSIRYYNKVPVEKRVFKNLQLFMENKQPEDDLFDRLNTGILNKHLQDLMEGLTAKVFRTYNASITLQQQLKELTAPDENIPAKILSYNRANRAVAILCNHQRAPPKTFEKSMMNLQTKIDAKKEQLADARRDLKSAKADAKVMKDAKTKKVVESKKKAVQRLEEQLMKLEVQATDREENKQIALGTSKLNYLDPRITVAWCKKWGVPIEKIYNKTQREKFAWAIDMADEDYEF
As to conditions: cited from earlier work.

For data set [4], the system named is cancer cells. As to conditions: cited from earlier work.
The conditions of data set [5]: human, in vivo; cited from earlier work.
The test system of data set [6] is FaDu cell line not expressing ABCG2. In words: In vitro cell viability test, FaDu. As to conditions: FIG. 28, 3 days.

“Also recorded” adds a separate entry of the source. Where two headings read alike, the source gives them in different places.

T1 sequence (P17844 whole entry): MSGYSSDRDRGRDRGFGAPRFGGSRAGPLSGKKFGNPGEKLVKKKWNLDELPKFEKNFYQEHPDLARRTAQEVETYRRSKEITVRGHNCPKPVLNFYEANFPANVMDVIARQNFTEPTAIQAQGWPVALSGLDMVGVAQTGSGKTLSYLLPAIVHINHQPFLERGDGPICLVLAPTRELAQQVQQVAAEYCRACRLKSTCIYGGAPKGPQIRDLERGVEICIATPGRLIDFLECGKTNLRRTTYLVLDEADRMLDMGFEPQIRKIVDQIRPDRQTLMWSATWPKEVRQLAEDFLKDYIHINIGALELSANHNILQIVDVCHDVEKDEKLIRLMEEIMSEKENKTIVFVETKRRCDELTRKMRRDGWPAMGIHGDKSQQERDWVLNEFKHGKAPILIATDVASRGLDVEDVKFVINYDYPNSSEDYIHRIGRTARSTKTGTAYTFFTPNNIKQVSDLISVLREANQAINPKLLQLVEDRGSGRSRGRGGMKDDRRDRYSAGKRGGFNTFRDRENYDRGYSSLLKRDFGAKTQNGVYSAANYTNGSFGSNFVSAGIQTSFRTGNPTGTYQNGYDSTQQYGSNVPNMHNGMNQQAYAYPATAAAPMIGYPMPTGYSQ

Take `CC[C@@]1(O)C(=O)OCc2c1cc1n(c2=O)Cc2c-1nc1cc3c(c4c1c2[C@@H](NC(=O)CO)CC4)OCO3` [PBX-7014]: the DDX5 degradation result on DDX5 is “degrading DDX5”; at DDX5 (listed as 7014) it was “followed by 7011, 7016, and 7014 in this order”.

For the molecule `CC[C@@]1(O)C(=O)OCc2c1cc1n(c2=O)Cc2c-1nc1cc3c(c4c1c2[C@@H](NC(=O)[C@@H](C)O)CC4)OCO3` [PBX-7016], the DDX5 degradation result is “degrading DDX5; also recorded: inhibits DDX5 in a concentration-dependent manner; also recorded: works better than PBX-7014” on DDX5; “followed by 7011, 7016, and 7014 in this order” at DDX5 (listed as 7016).

Take `CC[C@@]1(O)C(=O)OCc2c1cc1n(c2=O)Cc2c-1nc1cc(F)c(C)c3c1c2[C@@H](N)CC3` [exatecan]: the DDX5 degradation result at DDX5 is “exhibits a MoA that degrades the DDX5 protein”. In addition, the “downregulating a tumor protein compared to SN-38” value in [1] is given as “better effect in downregulating a tumor protein”.

By IC50 is commonly meant the concentration that inhibits the measured activity by half. On to `CC[C@@]1(O)C(=O)OCc2c1cc1n(c2=O)Cc2cc3cc4c(cc3nc2-1)OCO4` [FL118], for which the DDX5 degradation entry at DDX5 is given as “superior to other substances”. In the data set with cancer cells [2], the IC50 is less than 100 nM. In addition, the safety result in the data set “GLP-toxicity tests” is on record as “excellent safety”. In addition, the “efficacy compared to SN-38” value in [3] is reported as “superior efficiency compared to SN-38; also recorded: strong tumor regression efficacy compared to SN-38”. In addition, at ABCG2 transporter, the “effect of ABCG2 transporter” value is listed as “not affected by the ABCG2 transporter”. The “downregulating a tumor protein compared to SN-38” value in data set [1] was “better effect in downregulating a tumor protein”.

Take `CC[C@@]1(O)C(=O)OCc2c1cc1n(c2=O)Cc2c-1nc1cc(F)c(C)c3c1c2[C@@H](NC(=O)CO)CC3` [Dxd]: the DDX5 degradation result at DDX5 is recorded as “exhibits a MoA that degrades the DDX5 protein”. The IC50 on DNA topoisomerase-1 is 310 nM. In addition, the “cytotoxicity / activity in cancer cells relative to SN-38” value in the data set on cancer cells [4] is “about 10 times”.

For Trodelvy, in data set [5], the “diarrhea of all grades” value was 65%; the “febrile neutropenia, patients” value was 7%; the “neutropenia grade 3 or higher” value is reported as 47%; the “neutropenia of all grades” value was 61%. Also, the “neutropenic colitis, patients” value in data set [5] is given as 0.5%.

Consider `CC[C@@]1(O)C(=O)OCc2c1cc1n(c2=O)Cc2c-1nc1cc3c(c4c1c2[C@@H](NC(=O)[C@@H](O)C1CC1)CC4)OCO3` [PBX-7024], for which the apoptotic efficacy entry in data set [6] is recorded as “potent apoptotic efficacy”.

Consider `CC[C@@]1(O)C(=O)OCc2c1cc1n(c2=O)Cc2c-1nc1cc3c(c4c1c2[C@@H](N)CC4)OCO3` (single isomer, unassigned) [PBX-7011], for which the DDX5 degradation result at DDX5 was “degrading DDX5”; on DDX5 (listed as 7011), “followed by 7011, 7016, and 7014 in this order”.
